# Results from patent US20130310256A1, “HERBICIDAL COMPOSITIONS COMPRISING 4-AMINO-3-CHLORO-5-FLUORO-6-(4-CHLORO-2-FLUORO-3-METHOXYPHENYL) PYRIDINE-2-CARBOXYLIC ACID OR A DERIVATIVE THEREOF AND VLCFA AND LIPID SYNTHESIS INHIBITING HERBICIDES” (DOW AGROSCIENCES LLC, priority 2008, published 2013).
# What was measured:
# SCPJU [1] = experiment: Example V: field trial, in-water application to transplanted rice, Niigata, Japan; assay type: in vivo, Scirpus juncoides; conditions: 31 DAA, submerged weeds
# Protocol: Post and pre-emergence field trials were conducted in Niigata, Japan. Trial sites were located in commercially grown fields of transplanted rice (Oryza sativa, variety: Koshihikari) using standard herbicide small plot research methodology. The trial plot size was 2 meters (m)×2 m with 3 replications. The nursery plants were grown in the greenhouse using practical methods and transplanted into the field at the 2.5-leaf stage on May 7, 2012. The row and in-row spaces were 30 cm and 17 cm, respectively. The crop was grown using normal cultural practices for fertilization, water management and maintenance to ensure good growth of the crop and the weeds.
# Treatments consisted of the benzyl ester of 4-amino-3-chloro-5-fluoro-6-(4-chloro-2-fluoro-3-methoxyphenyl)pyridine-2-carboxylic acid (Compound A) formulated as an SC (suspension concentrate) and various herbicidal components alone and in combination. Compound A benzyl ester was applied on an active ingredient basis. […]
# Compound A benzyl ester SC was once diluted in 100 mL water in the 200 mL bottle/plot to achieve the desired rates and applied by water injection. […] Visual weed control was scored on a scale of 0 to 100 percent where 0 corresponds to no injury and 100 corresponds to complete kill. […]
# SCPJU [2] = experiment: Example I: postemergence foliar-applied weed control, greenhouse; assay type: in vivo, Schoenoplectus juncoides (Roxb.) Palla (Japanese bulrush)
# SASKR = experiment: Example III: post-emergence foliar-applied weed control in cereal crops, greenhouse; assay type: in vivo, Salsola tragus L.; conditions: 21 DAA
# Protocol: Seeds of the desired test plant species were planted in Sun Gro MetroMix® 306 planting mixture, which typically has a pH of 6.0 to 6.8 and an organic matter content of about 30 percent, in plastic pots with a surface area of 103.2 square centimeters (cm^2). When required to ensure good germination and healthy plants, a fungicide treatment and/or other chemical or physical treatment was applied. The plants were grown for 7-36 days in a greenhouse with an approximate 14 hour photoperiod which was maintained at about 18° C. during the day and 17° C. during the night. Nutrients and water were added on a regular basis and supplemental lighting was provided with overhead metal halide 1000-Watt lamps as necessary. The plants were employed for testing when they reached the second or third true leaf stage.
# Treatments consisted of the benzyl ester of 4-amino-3-chloro-5-fluoro-6-(4-chloro-2-fluoro-3-methoxy-phenyl)pyridine-2-carboxylic acid (Compound A), formulated as an SC (suspension concentrate), and a second cereal herbicide alone and in combination.
# Measured aliquots of the benzyl ester of 4-amino-3-chloro-5-fluoro-6-(4-chloro-2-fluoro-3-methoxy-phenyl)pyridine-2-carboxylic acid (Compound A) were placed in 25 milliliter (mL) glass vials and diluted in a volume of 1.25% (v/v) Agri-dex crop oil concentrated to obtain stock solutions. Compound requirements are based upon a 12 mL application volume at a rate of 187 liters per hectare (L/ha). Spray solutions of the second cereal herbicide and experimental compound mixtures were prepared by adding the stock solutions to the appropriate amount of dilution solution to form 12 mL spray solution with active ingredients in two- and three-way combinations. Formulated compounds were applied to the plant material with an overhead Mandel track sprayer equipped with an 8002E nozzle calibrated to deliver 187 L/ha over an application area of 0.503 square meters (m^2) at a spray height of 18 inches (46 cm) above average plant canopy. Control plants were sprayed in the same manner with the solvent blank.
# The treated plants and control plants were placed in a greenhouse as described above and watered by sub-irrigation to prevent wash-off of the test compounds. After 20-22 days, the condition of the test plants as compared with that of the control plants was determined visually and scored on a scale of 0 to 100 percent where 0 corresponds to no injury and 100 corresponds to complete kill.
# Colby's equation was used to determine the herbicidal effects expected from the mixtures (Colby, S. R. 1967. Calculation of the synergistic and antagonistic response of herbicide combinations. Weeds 15:20-22.).
smiles,measurement,setting,value
"CCS(=O)(=O)Oc1ccc2c(c1)C(C)(C)CO2 [Benfuresate, 2,3-dihydro-3,3-dimethyl-5-benzofuranyl ethanesulfonate]",Visual Weed Control SCPJU Obs,SCPJU [1]; 600 gai/ha,64.3%
"CCN(CC)C(=O)n1cnc(S(=O)(=O)c2c(C)cc(C)cc2C)n1 [Cafenstrole, N,N-diethyl-3-[(2,4,6-trimethylphenyl)sulfonyl]-1H-1,2,4-triazole-1-carboxamide]",Visual Weed Control (%) - 21 DAA SCPJU Obs,SCPJU [2]; 26.25 gai/ha,0%
same,Visual Weed Control (%) - 21 DAA SCPJU Obs,SCPJU [2]; 52.5 gai/ha,0%
same,Visual Weed Control (%) - 21 DAA SCPJU Obs,SCPJU [2]; 105 gai/ha,0%
"COc1c(Cl)ccc(-c2nc(C(=O)OCc3ccccc3)c(Cl)c(N)c2F)c1F [Compound A Benzyl Ester, benzyl ester of 4-amino-3-chloro-5-fluoro-6-(4-chloro-2-fluoro-3-methoxy-phenyl)pyridine-2-carboxylic acid]",Visual Weed Control (%) - 21 DAA SCPJU Obs,SCPJU [2]; 4.38 gae/ha,40%
same,Visual Weed Control SCPJU Obs,SCPJU [1]; 100 gai/ha,87.7%
same,Visual Weed Control SASKR Obs,SASKR; 2.5 gai/ha,15%
same,Visual Weed Control SASKR Obs,SASKR; 5 gai/ha,50%
same,Visual Weed Control SASKR Obs,SASKR; 10 gai/ha,67%
